Tests used:
[1] = test system: HASMC (human aortic smooth muscle cells); assay: MTS cell viability analysis, HASMC; type: cell-based
Procedure: (§1) MTS analysis was performed using CellTiter96 Aqueous Non-Radioactive Cell Proliferation Assay kit (Promega, Madison, WI, USA) as specified by the manufacturer. Cells were seeded at a density of 5,000 cells per well, and allowed to adhere overnight. Cellular viability was assessed 24 h after treatment with DMSO (control), or 10, 50, or 100 nM verticillin A, and absorbance was measured at 490 nm wavelength.
(§2) In vitro analyses were performed in triplicate. Mean ± SEM (standard error mean) calculations and statistical analyses were performed for all cell-based assays, and EC50 values were computed using GraphPad Prism version 6.00 (for Windows, GraphPad Software, La Jolla California USA, www.graphpad.com). All Student t tests performed were unpaired and two-sided. The average tumor volume (mm^3) and weight ([…]) for each study arm was measured and recorded. Mean ± SEM was calculated for each treatment group, and end-point analyses determined using unpaired two-sided t test was utilized to determine variances. *p ≤ 0.05; **p ≤ 0.01; ***p ≤ 0.001.

[2] = test system: HSC (human Schwann cells); assay: MTS cell viability analysis, HSC; type: cell-based
Procedure: as §1, §2

[3] = test system: MPNST724 cells; assay: MTS cell viability analysis, MPNST724; type: cell-based, human
Procedure: as §1, §2

[4] = test system: S462 cells; assay: MTS cell viability analysis, S462; type: cell-based, human
Procedure: as §1, §2

[5] = test system: SKLMS1 cells; assay: MTS cell viability analysis, SKLMS1; type: cell-based
Procedure: as §1, §2

[6] = test system: LMS1 cells; assay: MTS cell viability analysis, LMS1; type: cell-based
Procedure: as §1, §2

[7] = test system: ST88 cells; assay: MTS cell viability analysis, ST88; type: cell-based, human; details: 24 h
Procedure: as §1, §2

[8] = test system: MPNST and LMS cell lines; assay: Clonogenic analysis; type: cell-based; details: all doses, 24 h treatment then 10 days recovery
Procedure: Cells were seeded at 800 cells per well in a 6-well plate (9.5 cm^2) and allowed to attach overnight prior to treatment with DMSO or varying concentrations of verticillin A. Cells were treated for 24 h, then changed to recovery media and allowed to continue to grow for 10 days. Colonies were stained using 0.5% crystal violet solution in methanol for 30 min. Staining solution was removed, wells were washed with deionized H2O, and stained colonies were imaged and counted.

[9] = test system: MPNST and LMS cell lines; assay: Cell cycle analysis (PI, FACS); type: cell-based; details: MPNST and LMS cells, 24 h treatment
Procedure: Cells were synchronized by 16 h starvation prior to treatment with DMSO, 10, 50, or 100 nM of verticillin A for 24 h. Attached and floating cells were collected following treatment and centrifuged for 5 min at 2500 RPM. Supernatant was removed and cells were washed twice with cold PBS. Cells were centrifuged (2500 RPM/5 min) and resuspended in 70% ethanol and fixed overnight at −20° C. Cells were then centrifuged at (2500 RPM/5 min), and ethanol was removed. Subsequently, cells were resuspended in 400 µL PI stain (0.05 mg/mL/ 1 mg/mL sodium citrate/ 50 µL Triton-X-100/ 50 µL RNase A, brought to 50 mL with PBS) and analyzed via LSR II FACS analysis.

[10] = test system: HSC; assay: Cleaved caspase 3/7 activity, HSC; type: cell-based, human; details: 24 h
Procedure: (§3) Apoptosis was measured by quantifying cleaved-caspase 3 and cleaved-caspase 7 activity using Cell Event Caspase 3/7 Green Detection Reagent (Life Technologies, Carlsbad, CA, USA) in the Incucyte Zoom system (Essen BioScience, Ann Arbor, MI, USA). Cells were plated at a density of 4,200 cells per well and allowed to adhere. The cells were then treated with DMSO or 10, 50, or 100 nM verticillin A for 24 h, and caspase activity was monitored using fluorescent Cell Event Caspase 3/7 Reagent (5 µM final concentration). Endpoint analysis was performed in each well using a final concentration of 10 µM Vybrant DyeCycle Green Stain (Life Technologies, Carlsbad, CA, USA) in complete DMEM. Apoptosis was confirmed using the Apoptosis Detection Kit (BD Pharmagen, San Diego, CA, USA) in complete DMEM. Per supplier instructions, 1 × 10^6 cells/mL were stained with 5 µL Annexin V-FITC and 5 µL propidium iodide following 24 h treatment with DMSO or 10, 50, or 100 nM verticillin A and analyzed via FACS analysis (LSR II, BD Pharmagen, San Diego, CA, USA).

[11] = test system: HASMC; assay: Cleaved caspase 3/7 activity, HASMC; type: cell-based, human; details: 24 h
Procedure: as §3

[12] = test system: MPNST and LMS cell lines; assay: Cleaved caspase 3/7 activity, MPNST and LMS cell lines; type: cell-based; details: all MPNST and LMS cell lines
Procedure: as §3

[13] = test system: LMS1 cells; assay: Annexin V/PI FACS analysis, LMS1; type: cell-based; details: LMS1, 24 h treatment, concentration not given
Procedure: as §3

[14] = test system: MPNST724 cells; assay: Annexin V/PI FACS analysis, MPNST724; type: cell-based, human; details: MPNST724, 24 h treatment, concentration not given
Procedure: as §3

[15] = test system: SKLMS1 cells; assay: Annexin V/PI FACS analysis, SKLMS1; type: cell-based; details: SKLMS1, 24 h treatment, concentration not given
Procedure: as §3

[16] = test system: S462 cells; assay: Annexin V/PI FACS analysis, S462; type: cell-based, human; details: S462, 24 h treatment, concentration not given
Procedure: as §3

[17] = test system: MPNST724 xenografts; assay: MPNST724 xenograft model; type: in vivo, SCID mice
Procedure: Six week old female SCID mice (Taconic Biosciences, Hudson, NY, USA; model ^#CB17SC) were injected subcutaneously with 1 × 10^6 MPNST724 cells into the flank. Once tumors reached 0.5 cm, mice were allocated into three arms (10 mice per arm) and treatment via intraperitoneal injections was initiated: Vehicle (5% ethanol/15% cremophor EL/80% PBS), verticillin A (0.25 mg/kg every other day), or verticillin A (0.5 mg/kg every other day). Mice were weighed and tumors were measured twice weekly. Mice were euthanized once tumors in the control group grew to ~1.5 cm. Final tumor volumes and weights were measured, and tumors were processed for IHC analysis.
Ki67 (Vector Laboratories) and cleaved caspase 3 (Cell Signaling) antibodies were used to identify the effect of verticillin A on proliferation and apoptosis, respectively. IHC staining was conducted at Nationwide Children’s Hospital (Columbus, OH) and analysis was performed at the Polaris Innovation Center (The Ohio State University, Columbus, OH, USA). IHC samples and analyses were verified by pathologist, O. Hans Iwenofu, M.D. (The Ohio State University, Department of Pathology, Columbus, OH, USA).
as §2

[18] = test system: SW620 colon cancer cells; design: method as in PMID 21911457; details: cited from earlier work
[19] = test system: HepG2 liver carcinoma cells; design: method as in PMID 21911457; details: cited from earlier work
[20] = Homo sapiens, MTS, 24 h treatment
[21] = 0.5 mg/kg intraperitoneal every other day, day 11
[22] = MPNST724 xenograft tumors, 0.5 mg/kg

## CN1C(=O)C23SSC1(C)C(=O)N2C1Nc2ccccc2C1(C12c4ccccc4NC1N1C(=O)C4(C)SSC1(C(=O)N4C)C2O)C3O (stereo not shown) [verticillin A]
[1]; 100 nM
  effect on cell viability: no effect
[1]; [20]
  EC50: 251 nM
[2]; [20]
  EC50: 64.9 nM
[2]; highest treatment dose
  toxicity to normal cells: toxicity was seen
[3]; Homo sapiens, MPNST724, MTS, 24 h treatment
  EC50: 125 nM
[3]; MPNST724, 10 nM, 24 h
  effect on cell viability: exhibited tolerance
[3]; MPNST724, 100 nM, 24 h
  cellular growth reduction: 39.7%
[4]; Homo sapiens, S462, MTS, 24 h treatment
  EC50: 26 nM
[4]; S462, 10 nM, 24 h
  effect on cell viability: marked inhibitory effect
[4]; S462, 100 nM, 24 h
  cellular growth reduction: 88.7%
[5]; Homo sapiens, SK-LMS-1, SKLMS1, MTS, 24 h treatment
  EC50: 74.6 nM
[5]; SKLMS1, 10 nM, 24 h
  effect on cell viability: exhibited tolerance
[5]; SKLMS1, 100 nM, 24 h
  cellular growth reduction: 57%
[6]; LMS1, 10 nM, 24 h
  effect on cell viability: marked inhibitory effect
[6]; LMS1, 100 nM, 24 h
  cellular growth reduction: 96.7%
[6]; LMS1, MTS, 24 h treatment
  EC50: 10.7 nM
[7]; ST88, 10 nM
  effect on cell viability: marked inhibitory effect
[7]; ST88, 100 nM
  cellular growth reduction: 72.7%
[8]
  colony formation capacity: unable to form colonies
[9]
  cell cycle arrest: No substantial arrest in cell cycle progression
[10]
  cleaved caspase 3/7 activity: 1.1 fold change
[11]
  cleaved caspase 3/7 activity: 1.2 fold change
[12]
  increase in cleaved caspase 3/7 activity: nearly two-fold increase
[13]
  apoptosis (Annexin V/PI): 73.4 ± 12.7%
[14]
  apoptosis (Annexin V/PI): 34 ± 4.3%
[15]
  apoptosis (Annexin V/PI): 29.4 ± 2.3%
[16]
  apoptosis (Annexin V/PI): 25.9 ± 3.75%
[17]; 0.25 mg/kg intraperitoneal every other day, day 11
  tumor volume: 355.89 mm^3
[17]; 0.5 mg/kg arm, 10 mice per arm
  verticillin A-induced mortality: 2 mice
[17]; 0.5 mg/kg intraperitoneal every other day
  toxicity signs in mice: reduced grooming tendencies and mild weight loss
[17]; [21]
  tumor volume: 160.92 mm^3
  tumor weight: 0.2 g
[17]; [22]
  decrease in Ki67 proliferation marker expression (IHC): ~40%
  increase in cleaved caspase 3 expression (IHC): 5.5 fold
[17]; lower dose (0.25 mg/kg)
  toxicity signs in mice: Minor signs of toxicity
[18]
  cell cycle effect: induce G2 cell cycle arrest
[19]
  cell cycle effect: no changes in cell cycle progression

Source: article PMC5295762, “Verticillin A Inhibits Leiomyosarcoma and Malignant Peripheral Nerve Sheath Tumor Growth via Induction of Apoptosis” (Clinical & experimental pharmacology, 2016)
